Each structure is given as a SMILES string. Like-named read-outs stand apart in the source and are kept apart here.

The values that follow come from patent publication US10352947B2, “Use of markers in the identification of cardiotoxic agents and in the diagnosis and monitoring of cardiomyopathy and cardiovascular disease” (Berg LLC, priority 2012, dated 2019).

In one data set the test system is CCDC47. As for the experimental part: Human serum samples from individuals with type 2 diabetes mellitus (T2D) and/or cardiomyopathy treated with various drugs and appropriate control subjects (n=120 total) were acquired from a commercial source. The characteristics of the group was as follows:
The level of the cardiomyopathy protein biomarker CCDC47 were measured in the serum samples from the T2DM individuals and drug treated T2DM individuals using commercially available ELISA kits. The assays were performed using the manufactures' instructions. An ROC analysis was performed to determine if serum CCDC47 levels correlated with cardiomyopathy.

Another data set has as its system EDIL3. The data set is described as follows: Serum EDIL3 ELISA in normal, T2DM, Rosiglitazone-treated T2DM and cardiomyopathy individuals. The data set is classed as in vivo, human. As to conditions: some Rosiglitazone-treated T2DM individuals vs. the other Rosiglitazone-treated T2DM individuals; FIG. 7. How it is done: (§1) The level of protein expression of cardiotoxicity biomarkers EDIL3 and NucB1 in the serum samples from these four groups of individuals were measured by using commercially available ELISA kits.
(§2) The expression levels of the cardiotoxicity biomarkers EDIL3 and NucB1 were determined and the average expression of each biomarker for each group of individuals was calculated.

The next data set concerns serum lipids. The data set is described as follows: Serum lipidomics of patients (diabetes / rosiglitazone / cardiomyopathy groups). Format: in vivo, human. An excerpt: The platform methods provided herein enables integration of multi-omic signatures from human drug induced organ toxicity models. A substantive example of the platforms prowess that is under consideration here is a human drug induced cardio toxicity scenario. Human drug induced cardio toxicity models that comprises of i) Human cardiomyocyte based in vitro models of cardiotoxicity and ii) Serum samples from patients on a drug that induces cardiotoxicity. In vitro models include human cardio myocyte pretreated with fatty acids (linoleic, oleic acids and L-Carnitine) followed by treatment with a drug. The drug under consideration here is a thiazolidinedione. Cell based assays specifically measuring functional end points namely mitochondrial ATP, ROS, cell viability and mitochondrial bioenergetics were performed on in vitro models.
Proteomics was performed using the LTQ Orbitrap from Thermo Scientific as mentioned in earlier reports. Shortgun Lipidomics was performed using the TSQ vantage EMR triple Quad mass spec from thermo.
Standard procedures for merging, normalization and imputation were followed. Quality control plots for these steps are included in the accompanying folder.
Quantification of lipids that are common to serum lipid networks and pellet lipid networks. […] Lipid levels are expressed as a percent of normal lipid levels in FIG. 10B. […]

The next data set has as its system NucB1. Put plainly: Serum NucB1 ELISA in normal, T2DM, Rosiglitazone-treated T2DM and cardiomyopathy individuals. The data set is classed as in vivo, human. To be noted: some Rosiglitazone-treated T2DM individuals vs. the other Rosiglitazone-treated T2DM individuals; FIG. 8. How it is done:
as §1, §2
For orientation: An ELISA detects its analyte on a solid surface through an enzyme-linked reagent.

As to `CC(C)c1c(C(=O)Nc2ccccc2)c(-c2ccccc2)c(-c2ccc(F)cc2)n1CC[C@@H](O)C[C@@H](O)CC(=O)O` [atorvastatin], the “level of CCDC47 in serum” value with CCDC47 (human, in vivo) is on record as “No significant difference”.
As to `CN(C)C(=N)N=C(N)N` [metformin], in the data set with CCDC47 (human, in vivo), the “level of CCDC47 in serum” value is on record as “No significant difference”.
Regarding `CN(CCOc1ccc(CC2SC(=O)NC2=O)cc1)c1ccccn1` (stereo not shown) [rosiglitazone], the “EDIL3 expression level in serum” value in the data set on EDIL3 is reported as “decreased”. Further, in the data set on CCDC47 (subjects treated with the drug vs. subjects treated with the other two drugs (rosiglitazone, metformin, atorvastatin), ELISA, FIG. 13), the “level of CCDC47 in serum” value is given as “significant increase”. Further, the “serum level of lipid PE D18:0-20:3/D18:1-20:2/D16:0-22:3” value with serum lipids (diabetic subjects on rosiglitazone with clinical diagnosis of cardiomyopathy vs. diabetic alone and diabetics on rosiglitazone without cardiomyopathy, FIG. 10) is “significantly reduced”. In addition, the “serum ethanolamine glycerophospholipid species P16:0-20:4, D18:0-18:2, P16:0-22:6, P18:0-20:4 and D18:0-20:4” value with serum lipids (diabetic vs. diabetic rosiglitazone no cardiomyopathy vs. diabetic rosiglitazone cardiomyopathy) is “stratified along with the treatment with rosiglitazone”. Besides, the “NucB1 expression level in serum” value in the data set on NucB1 is recorded as “decreased”.
